Data reported in patent US11753408B2, “Compounds and method for blocking transmission of malarial parasite” (The United States of America, as represented by the …, priority 2016, dated 2023).
pEC50: −log10 of the molar value. Like-named read-outs stand apart in the source and are kept apart here. Blank lines part the entries; values can stand above or below the molecule they belong to.

Columns and labels:
[1] = system: Stage III-V gametocytes (blood stage P. falciparum parasites); assay: In vitro drug activity on gametocytes (AlamarBlue viability assay); format: cell-based, Plasmodium falciparum; conditions: for pEC50: read-out: Gametocyte EC50
Description: Cell culture. Asexual parasites of P. falciparum strain 3D7 were cultured as described previously [Trager W, et al., Journal of Parasitology 2005, 91: 484-486], Stage III-V gametocytes were selected and enriched with 3-day treatment with 50 mM N-acetylglucosamine (NAG) and the following Percoll density gradient centrifugation after gametocyte production [Tanaka T Q, et al., Molecular and Biochemical Parasitology, 2011, 111: 160-163], Gametocytes of HB3 and Dd2 strains were produced and then set up for assay in a similar process. HepG2 cells (ATCC, cat. no. 77400) were cultured in 175-cm^2 tissue culture flasks with 30 ml growth medium at 37° C. in a 5% CO2 humidified atmosphere. Growth medium was made with Dulbecco's Modified Eagle Medium with 10% fetal bovine serum (FBS). Growth medium was replaced every other day and cells were passed at 75% confluence.
Compound screening experiments were performed as previously described [Tanaka T Q et al., Molecular and Biochemical Parasitology, 2013, 3188: 20-25], Briefly, 2.5 μl/well incomplete medium was dispensed into each well of 1,536-well plates using the Multidrop Combi followed by 23 nl compound transferring using the NX-TR Pintool (WAKO Scientific Solutions, San Diego, Calif.). 2.5 μl/well of gametocytes was dispensed with a seeding density of 20,000 cells/well using the Multidrop Combi. The assay plates were incubated for 72 h at 37° C. with 5% CO2. After addition of 5 μl/well of 2× AlamarBlue dye (Life Technologies, cat. no. DALI 100), the plates were incubated for 24 h at 37° C. with 5% CO2 and were read in a fluorescence detection mode (Ex=525 nm, Em=598 nm) on a ViewLux plate reader (PerkinElmer).
Stage III-V gametocytes (blood stage P. falciparum parasites) were enriched with treatment with 50 mM N-acetylglucosamine (NAG) and Percoll density gradient centrifugation as described previously^1. Briefly, 2.5 μl/well incomplete medium was dispensed into each well of 1,536-well plates using the Multidrop Combi followed by 23 nl compound transfer using the NX-TR Pintool (WAKO Scientific Solutions, San Diego, Calif.). Then, 2.5 μl/well of gametocytes was dispensed with a seeding density of 20,000 cells/well using the Multidrop Combi. The assay plates were incubated for 72 h at 37° C. with 5% CO2. After addition of 5 μl/well of 2× AlamarBlue dye (Life Technologies, cat. no. DALI 100), the plates were incubated for 24 h at 37° C. with 5% CO2 and then were read in a fluorescence detection mode (Ex=525 nm, Em=598 nm) on a ViewLux plate reader (PerkinElmer).

[2] = system: Asexual parasites of P. falciparum strain 3D7; assay: In vitro drug activity on asexual parasites (SYBR Green assay); format: cell-based, Plasmodium falciparum
Method in brief: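 3D7 parasites at 0.5% parasitemia and 2% hematocrit were exposed to drugs (DMSO ≤0.5%) for 72 h under standard culture conditions, in duplicate. After freeze-thaw lysis, SYBR Green I lysis buffer was added for 30 min at room temperature, and fluorescence was read at 490/520 nm.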

[3] = Microsomal stability (rat); format: in vitro ADME; conditions: rat microsomes
Solubility at pH 7.4 = format: physicochemical
mTOR = mTOR (Homo sapiens, UniProt P42345); assay: mTOR activity (no method described); format: biochemical
[4] = P. falciparum stage III-V gametocytes, 72 h incubation, AlamarBlue
[5] = P. falciparum 3D7 asexual parasites, 72 h, SYBR Green

SMILES: O=c1ccc2cnc3ccc(-c4ccc(Cl)cc4)cc3c2n1-c1ccc(S(=O)(=O)NC2CC2)cc1 [Compound 46]
pEC50 [1, 4]: 6.59 | pEC50 [2, 5]: 7.20 | Microsomal Stability (rat) T1/2 [3]: 8.3 min | Sol @ pH 7.4 (ug/mL) (Solubility at pH 7.4): <1.0 ug/mL

SMILES: CN(C)Cc1ccc(-c2ccc3ncc4ccc(=O)n(-c5ccc([S+](C)[O-])cc5)c4c3c2)cc1 (centres unmarked) [Compound 54]
pEC50 [1, 4]: 6.41 | pEC50 [2, 5]: 6.84 | Microsomal Stability (rat) T1/2 [3]: 51.7 min | Sol @ pH 7.4 (ug/mL) (Solubility at pH 7.4): >69.00 ug/mL

SMILES: CN(C)Cc1ccc(-c2ccc3ncc4ccc(=O)n(-c5ccc(S(C)(=O)=O)c(N6CCOCC6)c5)c4c3c2)cc1 [Compound 62]
pEC50 [1, 4]: 5.88 | pEC50 [2, 5]: 6.25 | Microsomal Stability (rat) T1/2 [3]: >30.00 min | Sol @ pH 7.4 (ug/mL) (Solubility at pH 7.4): >84.00 ug/mL

SMILES: Nc1ccc(-c2ccc3ncc4ccc(=O)n(-c5ccc(S(N)(=O)=O)cc5)c4c3c2)cn1 [Compound 78]
pEC50 [1, 4]: 7.94 | pEC50 [2, 5]: 8.21 | Microsomal Stability (rat) T1/2 [3]: >30.0 min | Sol @ pH 7.4 (ug/mL) (Solubility at pH 7.4): <1.0 ug/mL

SMILES: O=C(c1ccc(-n2c(=O)ccc3cnc4ccc(-c5ccccc5)cc4c32)cc1)N1CCOCC1 [Compound 125]
pEC50 [1]: 7.40 | pEC50 [2]: 8.09 | mTOR (mTOR): 0.5061 µM

SMILES: CC1CC1NC(=O)c1ccc(-n2c(=O)ccc3cnc4ccc(-c5ccc(Cl)cc5)cc4c32)cc1 (centres unmarked) [Compound 176]
pEC50 [1]: 6.55 | pEC50 [2]: 7.04 | mTOR (mTOR): 0.5562 µM | Sol @ pH 7.4 (Solubility at pH 7.4): <0.10 ug/mL

SMILES: CC1CC1NC(=O)c1ccc(-n2c(=O)ccc3cnc4ccc(-c5ccc(CN(C)C)cc5)cc4c32)cc1 (centres unmarked) [Compound 177]
pEC50 [1]: 6.04 | mTOR (mTOR): 9.038 µM | Sol @ pH 7.4 (Solubility at pH 7.4): >74.00 ug/mL

SMILES: NC1(c2ccc(-c3ccc4ncc5ccc(=O)n(-c6ccc(C(=O)N7CCOCC7)cc6)c5c4c3)cc2)CC1 [Compound 178]
pEC50 [1]: 6.04 | pEC50 [2]: 6.35 | mTOR (mTOR): 5.312 µM

SMILES: CN(C)CCc1ccc(-c2ccc3ncc4ccc(=O)n(-c5ccc(C(=O)N6CCOCC6)cc5)c4c3c2)cc1 [Compound 186]
pEC50 [1]: 6.24 | pEC50 [2]: 6.68 | mTOR (mTOR): 12.44 µM

SMILES: CC(C)(N)c1ccc(-c2ccc3ncc4ccc(=O)n(-c5ccc(C(=O)N6CCOCC6)cc5)c4c3c2)cc1 [Compound 187]
pEC50 [1]: 5.34 | pEC50 [2]: 5.79 | mTOR (mTOR): 0.7246 µM | Sol @ pH 7.4 (Solubility at pH 7.4): 0 ug/mL

SMILES: NC(=O)c1cccc(-n2c(=O)ccc3cnc4ccc(-c5ccc(N)nc5)cc4c32)c1 [Compound 333]
pEC50 [1]: 6.39 | pEC50 [2]: 6.62 | mTOR (mTOR): 0.2135 µM

SMILES: O=C1c2ccc(-n3c(=O)ccc4cnc5ccc(-c6ccc(Cl)cc6)cc5c43)cc2CN1C1CC1 [Compound 353]
pEC50 [1, 4]: 5.60 | pEC50 [2, 5]: 6.23 | Microsomal Stability (rat) T1/2 [3]: >30.0 min | Sol @ pH 7.4 (ug/mL) (Solubility at pH 7.4): 0 ug/mL

SMILES: CN(C)Cc1ccc(-c2ccc3ncc4ccc(=O)n(-c5ccc6c(c5)CN(CC(=O)O)C6=O)c4c3c2)cc1 [Compound 355]
pEC50 [1, 4]: 4.54 | pEC50 [2, 5]: 5.69 | Microsomal Stability (rat) T1/2 [3]: >30.0 min | Sol @ pH 7.4 (ug/mL) (Solubility at pH 7.4): >77.0 ug/mL

SMILES: Nc1ccc(-c2ccc3ncc4ccc(=O)n(-c5ccc6c(c5)CCC(=O)N6)c4c3c2)cn1 [Compound 391]
pEC50 [1, 4]: 7.25 | pEC50 [2, 5]: 7.91 | Microsomal Stability (rat) T1/2 [3]: >30.00 min | Sol @ pH 7.4 (ug/mL) (Solubility at pH 7.4): 10 ug/mL

The next lines start with results.

pEC50 [2]: 7.04 | mTOR (mTOR): 3.523 µM
SMILES: O=C(c1ccc(-n2c(=O)ccc3cnc4ccc(-c5ccc(Cl)cc5)cc4c32)c(Cl)c1)N1CCOCC1 [Compound 159]
pEC50 [1]: 6.49

pEC50 [2, 5]: 7.16 | Microsomal Stability (rat) T1/2 [3]: 12.4 min | Sol @ pH 7.4 (ug/mL) (Solubility at pH 7.4): <1.0 ug/mL
SMILES: CN1Cc2cc(-n3c(=O)ccc4cnc5ccc(-c6ccc(Cl)cc6)cc5c43)ccc2C1=O [Compound 341]
pEC50 [1, 4]: 7.08

pEC50 [2, 5]: 7.60 | Microsomal Stability (rat) T1/2 [3]: >30.00 min | Sol @ pH 7.4 (ug/mL) (Solubility at pH 7.4): <0.10 ug/mL
SMILES: O=C1CCc2cc(-n3c(=O)ccc4cnc5ccc(-c6ccc(Cl)cc6)cc5c43)ccc2N1 [Compound 356]
pEC50 [1, 4]: 7.18

pEC50 [2, 5]: 7.63 | Microsomal Stability (rat) T1/2 [3]: 14.9 min | Sol @ pH 7.4 (ug/mL) (Solubility at pH 7.4): 0.06 ug/mL
SMILES: CN1C(=O)CCc2cc(-n3c(=O)ccc4cnc5ccc(-c6ccc(Cl)cc6)cc5c43)ccc21 [Compound 359]
pEC50 [1, 4]: 6.89

pEC50 [2, 5]: 7.54 | Microsomal Stability (rat) T1/2 [3]: 12.8 min | Sol @ pH 7.4 (ug/mL) (Solubility at pH 7.4): 0 ug/mL
SMILES: O=C1NCCc2cc(-n3c(=O)ccc4cnc5ccc(-c6ccc(Cl)cc6)cc5c43)ccc21 [Compound 367]
pEC50 [1, 4]: 6.98

pEC50 [2]: 8.00 | mTOR (mTOR): 100 µM | Sol @ pH 7.4 (Solubility at pH 7.4): 0 ug/mL
SMILES: Cc1ccc(C#N)cc1-n1c(=O)n(C)c2cnc3ccc(-c4ccc(F)c(C#N)c4)cc3c21 [Compound 408]
pEC50 [1]: 6.52

pEC50 [2]: 7.28 | mTOR (mTOR): 50 µM | Sol @ pH 7.4 (Solubility at pH 7.4): 0 ug/mL
SMILES: COc1cc(-c2ccc3ncc4c(c3c2)n(-c2cc(C#N)ccc2C)c(=O)n4C)ccc1F [Compound 409]
pEC50 [1]: 6.98

pEC50 [2]: 8.60 | mTOR (mTOR): 100 µM | Sol @ pH 7.4 (Solubility at pH 7.4): 0 ug/mL
SMILES: Cc1ccc(C#N)cc1-n1c(=O)n(C)c2cnc3ccc(-c4ccc(Cl)c(C#N)c4)cc3c21 [Compound 410]
pEC50 [1]: 7.44

pEC50 [2]: 7.85 | mTOR (mTOR): 0.5842 µM
SMILES: Cn1c(=O)n(-c2ccc(N3CCNCC3)c(C#N)c2)c2c3cc(-c4ccc(F)cc4)ccc3ncc21 [Compound 414]
pEC50 [1]: 7.41

pEC50 [2]: 7.67 | mTOR (mTOR): 15.87 µM
SMILES: Cc1cc(N2CCNCC2)c(C#N)cc1-n1c(=O)n(C)c2cnc3ccc(-c4ccc(Cl)cc4)cc3c21 [Compound 415]
pEC50 [1]: 7.73

pEC50 [2]: 7.40 | mTOR (mTOR): 0.9306 µM
SMILES: Cc1cc(N2CCNCC2)c(C#N)cc1-n1c(=O)n(C)c2cnc3ccc(-c4ccc(F)cc4)cc3c21 [Compound 416]
pEC50 [1]: 7.66

pEC50 [2]: 4.35 | Microsomal Stability (rat) T1/2 [3]: 11.3 min | Sol @ pH 7.4 (Solubility at pH 7.4): <1.0 ug/mL
SMILES: N#Cc1ccc(-n2c(=O)[nH]c3cnc4ccc(-c5ccc(Cl)cc5)cc4c32)cc1 [Compound 434]
Gametocyte EC50 [1]: Inactive

pEC50 [2]: 6.35 | mTOR (mTOR): 100 µM
SMILES: Cn1c(=O)n(-c2cccc(C#N)c2)c2c3cc(-c4ccc(C#N)cc4)ccc3ncc21 [Compound 442]
pEC50 [1]: 5.70

pEC50 [2]: 6.57 | mTOR (mTOR): 0.6303 µM
SMILES: Cn1c(=O)n(-c2cccc(C#N)c2)c2c3cc(-c4ccc5[nH]cnc5c4)ccc3ncc21 [Compound 445]
pEC50 [1]: 6.13
